≈ marks a conversion by molar mass, not a printed value. Where a SMILES comes first, the peptide text is derived from it. Bridges are numbered along the chain shown (N, C = ends). [ ]: non-standard residue; d: D form. The star is where a group is joined. Quinoxaline2carbonyl = O=C(c1cnc2ccccc2n1)*; X16 = O=C(c1cnc(-c2ccccc2)nc1)*; X64 = O=C(c1noc(-c2ccccc2)n1)*; X23 = O=C(c1cc2ccccc2[nH]1)*; X1 = O=C(c1ncc(Cl)cc1Cl)*; X50 = O=C(c1sc(Br)cc1Br)*; X29 = O=C(c1cc(Cl)ccn1)*; Dab = NCC[C@H](N)C(=O)O; X40 = Cc1cncc(C(=O)*)c1; Abu = CC[C@H](N)C(=O)O; Dap = NC[C@H](N)C(=O)O; X53 = O=C(c1ccncc1Cl)*
Experiments:
Type in all cases: cell-based
[1] = tested on: Acinetobacter baumannii ATCC 17978; settings: ATCC 17978
Method in brief: (§1)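 The read-out is the MIC, obtained by CLSI broth microdilution (M100-S24) in cation-adjusted Mueller-Hinton broth. The compounds were lipopeptide TFA salts, and polymyxin B sulphate served as control.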

[2] = tested on: Acinetobacter baumannii FADDI-AB034; settings: FADDI-AB034
Method in brief: as §1

[3] = tested on: Enterobacter cloacae FADDI-EC001; settings: FADDI-EC001
Method in brief: as §1

[4] = tested on: Enterobacter cloacae FADDI-EC003; settings: FADDI-EC003
Method in brief: as §1

[5] = tested on: Enterobacter cloacae FADDI-EC006; settings: FADDI-EC006
Method in brief: as §1

[6] = tested on: Klebsiella pneumoniae FADDI-KP022; settings: FADDI-KP022
Method in brief: as §1

[7] = tested on: Klebsiella pneumoniae FADDI-KP032; settings: FADDI-KP032
Method in brief: as §1

[8] = tested on: Klebsiella pneumoniae Kp BM1; settings: Kp BM1
Method in brief: as §1

[9] = tested on: Pseudomonas aeruginosa ATCC 27853; settings: ATCC 27853
Method in brief: as §1

[10] = tested on: Pseudomonas aeruginosa FADDI-PA01; settings: FADDI-
Method in brief: as §1

[11] = tested on: Pseudomonas aeruginosa FADDI-PA022; settings: FADDI-PA022
Method in brief: as §1

[12] = tested on: Pseudomonas aeruginosa FADDI-PA038; settings: FADDI-PA038
Method in brief: as §1

[13] = tested on: Acinetobacter baumannii FADDI-AB030; assay: microbe, parasite or virus in culture; settings: FADDI-AB030
Method in brief: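 Broth microdilution MIC in cation-adjusted Mueller-Hinton broth per CLSI M100-S24; lipopeptides tested as TFA salts. FADDI-AB030 is a multidrug-resistant clinical isolate. Polymyxin B sulphate served as control.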

Row | Structure (SMILES) | Minimum inhibitory concentration [1] [µg/mL] | Minimum inhibitory concentration [2] [µg/mL] | Minimum inhibitory concentration [3] [µg/mL] | Minimum inhibitory concentration [4] [µg/mL] | Minimum inhibitory concentration [5] [µg/mL] | Minimum inhibitory concentration [6] [µg/mL] | Minimum inhibitory concentration [7] [µg/mL] | Minimum inhibitory concentration [8] [µg/mL] | Minimum inhibitory concentration [9] [µg/mL] | Minimum inhibitory concentration [10] [µg/mL] | Minimum inhibitory concentration [11] [µg/mL] | Minimum inhibitory concentration [12] [µg/mL] | Minimum inhibitory concentration [13] [µg/mL]
1 | CC[C@@H]1NC(=O)[C@@H](CC(C)C)NC(=O)[C@H](CCN)NC(=O)[C@@H](NC(=O)[C@H](CN)NC(=O)[C@@H](NC(=O)[C@H](CCN)NC(=O)c2ccncc2Cl)[C@@H](C)O)CCNC(=O)[C@H]([C@@H](C)O)NC(=O)[C@H](CCN)NC(=O)[C@H](CCN)NC1=O [Compound 34] (X53-[Dab]T[Dap][Dab][Dab][dL][Abu][Dab][Dab]T; lactam 4-C) | 8 (≈ 7.1 µM) | 8 (≈ 7.1 µM) | 0.25 (≈ 0.222 µM) | 0.5 (≈ 0.444 µM) | 2 (≈ 1.78 µM) | <0.125 | 1 (≈ 0.888 µM) | 1 (≈ 0.888 µM) | 0.25 (≈ 0.222 µM) | 0.25 (≈ 0.222 µM) | 0.25 (≈ 0.222 µM) | 1 (≈ 0.888 µM) | 8 (≈ 7.1 µM)
2 | CC[C@@H]1NC(=O)[C@@H](CC(C)C)NC(=O)[C@H](CCN)NC(=O)[C@@H](NC(=O)[C@H](CN)NC(=O)[C@@H](NC(=O)[C@H](CCN)NC(=O)c2cnc3ccccc3n2)[C@@H](C)O)CCNC(=O)[C@H]([C@@H](C)O)NC(=O)[C@H](CCN)NC(=O)[C@H](CCN)NC1=O [Compound 46] (Quinoxaline2carbonyl-[Dab]T[Dap][Dab][Dab][dL][Abu][Dab][Dab]T; lactam 4-C) | 4 (≈ 3.5 µM) | 4 (≈ 3.5 µM) | 0.25 (≈ 0.219 µM) | 0.25 (≈ 0.219 µM) | 2 (≈ 1.75 µM) | <0.125 | <0.125 | 0.25 (≈ 0.219 µM) | 0.5 (≈ 0.437 µM) | 0.25 (≈ 0.219 µM) | 0.5 (≈ 0.437 µM) | 0.5 (≈ 0.437 µM) | 2 (≈ 1.75 µM)
3 | CC(C)C[C@H]1NC(=O)[C@H](CCN)NC(=O)[C@@H](NC(=O)[C@H](CN)NC(=O)[C@@H](NC(=O)[C@H](CCN)NC(=O)c2cc3ccccc3[nH]2)[C@@H](C)O)CCNC(=O)[C@H]([C@@H](C)O)NC(=O)[C@H](CCN)NC(=O)[C@H](CCN)NC(=O)[C@H]([C@@H](C)O)NC1=O [Compound 66] (X23-[Dab]T[Dap][Dab][Dab][dL]T[Dab][Dab]T; lactam 4-C) | 2 (≈ 1.74 µM) | 1 (≈ 0.872 µM) | 0.5 (≈ 0.436 µM) | 0.5 (≈ 0.436 µM) | 1 (≈ 0.872 µM) | 0.5 (≈ 0.436 µM) | 1 (≈ 0.872 µM) | 0.5 (≈ 0.436 µM) | 0.5 (≈ 0.436 µM) | 2 (≈ 1.74 µM) | 0.25 (≈ 0.218 µM) | 2 (≈ 1.74 µM) | 1 (≈ 0.872 µM)
4 | CC[C@@H]1NC(=O)[C@@H](CC(C)C)NC(=O)[C@H](CCN)NC(=O)[C@@H](NC(=O)[C@H](CN)NC(=O)[C@@H](NC(=O)[C@H](CCN)NC(=O)c2cncc(C)c2)[C@@H](C)O)CCNC(=O)[C@H]([C@@H](C)O)NC(=O)[C@H](CCN)NC(=O)[C@H](CCN)NC1=O [Compound 30] (X40-[Dab]T[Dap][Dab][Dab][dL][Abu][Dab][Dab]T; lactam 4-C) | 8 (≈ 7.23 µM) | 4 (≈ 3.62 µM) | 0.5 (≈ 0.452 µM) | 0.5 (≈ 0.452 µM) | 2 (≈ 1.81 µM) | 0.25 (≈ 0.226 µM) | 2 (≈ 1.81 µM) | 1 (≈ 0.904 µM) | 0.5 (≈ 0.452 µM) | 0.5 (≈ 0.452 µM) | 0.5 (≈ 0.452 µM) | 1 (≈ 0.904 µM) | 4 (≈ 3.62 µM)
5 | CC[C@@H]1NC(=O)[C@@H](CC(C)C)NC(=O)[C@H](CCN)NC(=O)[C@@H](NC(=O)[C@H](CN)NC(=O)[C@@H](NC(=O)[C@H](CCN)NC(=O)c2cnc(-c3ccccc3)nc2)[C@@H](C)O)CCNC(=O)[C@H]([C@@H](C)O)NC(=O)[C@H](CCN)NC(=O)[C@H](CCN)NC1=O [Compound 73] (X16-[Dab]T[Dap][Dab][Dab][dL][Abu][Dab][Dab]T; lactam 4-C) | 0.5 (≈ 0.428 µM) | 0.5 (≈ 0.428 µM) | <0.125 | 0.5 (≈ 0.428 µM) | 1 (≈ 0.855 µM) | <0.125 | <0.125 | <0.125 | 0.5 (≈ 0.428 µM) | 0.5 (≈ 0.428 µM) | 0.5 (≈ 0.428 µM) | 2 (≈ 1.71 µM) | 0.5 (≈ 0.428 µM)
6 | CC(C)C[C@H]1NC(=O)[C@H](CCN)NC(=O)[C@@H](NC(=O)[C@H](CN)NC(=O)[C@@H](NC(=O)[C@H](CCN)NC(=O)c2ncc(Cl)cc2Cl)[C@@H](C)O)CCNC(=O)[C@H]([C@@H](C)O)NC(=O)[C@H](CCN)NC(=O)[C@H](CCN)NC(=O)[C@H]([C@@H](C)O)NC1=O [Compound 8] (X1-[Dab]T[Dap][Dab][Dab][dL]T[Dab][Dab]T; lactam 4-C) | 4 (≈ 3.4 µM) | 4 (≈ 3.4 µM) | <0.125 | 0.25 (≈ 0.212 µM) | 0.25 (≈ 0.212 µM) | <0.125 | 0.5 (≈ 0.425 µM) | 0.5 (≈ 0.425 µM) | 0.25 (≈ 0.212 µM) | 0.5 (≈ 0.425 µM) | 0.5 (≈ 0.425 µM) | 0.5 (≈ 0.425 µM) | 4 (≈ 3.4 µM)
7 | CC(C)C[C@H]1NC(=O)[C@H](CCN)NC(=O)[C@@H](NC(=O)[C@H](CN)NC(=O)[C@@H](NC(=O)[C@H](CCN)NC(=O)c2cc(Cl)ccn2)[C@@H](C)O)CCNC(=O)[C@H]([C@@H](C)O)NC(=O)[C@H](CCN)NC(=O)[C@H](CCN)NC(=O)[C@H]([C@@H](C)O)NC1=O [Compound 98] (X29-[Dab]T[Dap][Dab][Dab][dL]T[Dab][Dab]T; lactam 4-C) | 2 (≈ 1.75 µM) | 2 (≈ 1.75 µM) | <0.125 | <0.125 | 0.5 (≈ 0.438 µM) | <0.125 | 0.25 (≈ 0.219 µM) | 0.25 (≈ 0.219 µM) | 0.25 (≈ 0.219 µM) | 0.25 (≈ 0.219 µM) | 0.25 (≈ 0.219 µM) | 8 (≈ 7 µM) | 1 (≈ 0.875 µM)
8 | CC(C)C[C@H]1NC(=O)[C@H](CCN)NC(=O)[C@@H](NC(=O)[C@H](CN)NC(=O)[C@@H](NC(=O)[C@H](CCN)NC(=O)c2sc(Br)cc2Br)[C@@H](C)O)CCNC(=O)[C@H]([C@@H](C)O)NC(=O)[C@H](CCN)NC(=O)[C@H](CCN)NC(=O)[C@H]([C@@H](C)O)NC1=O [Compound 100] (X50-[Dab]T[Dap][Dab][Dab][dL]T[Dab][Dab]T; lactam 4-C) | 0.25 (≈ 0.197 µM) | 0.5 (≈ 0.393 µM) | <0.125 | <0.125 | <0.125 | <0.125 | 0.25 (≈ 0.197 µM) | 0.5 (≈ 0.393 µM) | <0.125 | <0.125 | <0.125 | 1 (≈ 0.787 µM) | 0.5 (≈ 0.393 µM)
9 | CC[C@@H]1NC(=O)[C@@H](CC(C)C)NC(=O)[C@H](CCN)NC(=O)[C@@H](NC(=O)[C@H](CN)NC(=O)[C@@H](NC(=O)[C@H](CCN)NC(=O)c2noc(-c3ccccc3)n2)[C@@H](C)O)CCNC(=O)[C@H]([C@@H](C)O)NC(=O)[C@H](CCN)NC(=O)[C@H](CCN)NC1=O [Compound 81] (X64-[Dab]T[Dap][Dab][Dab][dL][Abu][Dab][Dab]T; lactam 4-C) | 2 (≈ 1.73 µM) | 4 (≈ 3.45 µM) | <0.125 | <0.125 | 0.25 (≈ 0.216 µM) | <0.125 | 0.5 (≈ 0.431 µM) | 0.5 (≈ 0.431 µM) | 1 (≈ 0.863 µM) | 0.5 (≈ 0.431 µM) | 0.5 (≈ 0.431 µM) | 1 (≈ 0.863 µM) | 2 (≈ 1.73 µM)

Reference: patent publication US11225505B2, “Antimicrobial polymyxin derivative compounds” (MONASH UNIVERSITY, priority 2015, dated 2022)
